Values of other authors, collected in PMC3657752 (Inflammatory bowel diseases, 2011).

What was measured:
[1] = test system: colorectal, colon, and breast cancer models
[2] = test system: Experimental Autoimmune Encephalomyelitis (EAE) model; conditions: promoting permissive remyelination of spinal cord

CCN(CC)CCNc1ccc2ncn3c4ccc(O)cc4c(=O)c1c23 [Symadex]
activity in models of colorectal, colon, and breast cancer [1]: demonstrated activity
activity in EAE model [2]: active
